Twelve compounds from patent US9499550B2 (BRISTOL-MYERS SQUIBB COMPANY, priority 2012, dated 2016) can be followed below.

SMILES strings stand for the structures.

Experiment [1] concerns HCV genotype 1a (H77 strain) replicon in HUH-7 cells. Put plainly: HCV replicon luciferase reporter assay, genotype 1a. The experiment is classed as cell-based. The following applies: Hepatitis C virus, Huh-7, 72 h, HCV genotype 1a replicon luciferase, 3 days incubation, read-out: LE_1a (EC50, range). The gist of the method: (§1)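 Replicon inhibition for both genotypes was measured as Renilla luciferase signal (EnduRen, 7.5 μM final, 2 h) after 3-day, 37° C exposure of replicon-bearing HUH-7 cells in 4% FCS DMEM, 0.5% DMSO. The 1b construct carries S1179I; the 1a H77 construct carries P1496L and S2204I. Twenty-point, 3-fold dilutions were fitted four-parametrically for EC50, and CC50 was taken from multiplexed Cell Titer-Blue.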
On the technique in general: In antiviral work, replicon cells carry a viral genome segment that copies itself.

Experiment [2] concerns HCV genotype 1b (Con1) replicon in HUH-7 cells. The experiment in a line: HCV replicon luciferase reporter assay, genotype 1b. The following applies: Hepatitis C virus, Huh-7, 72 h, HCV genotype 1b replicon luciferase, 3 days incubation, read-out: LE_1b (EC50, range). The class given is cell-based. The gist of the method:
as §1

As a reminder, the EC50 is the concentration that produces a half-maximal response. Take `CC[C@@H]1C[C@H](C)CC/C=C\[C@@H]2C[C@@]2(C(=O)NS(=O)(=O)C2(C)CC2)NC(=O)[C@@H]2C[C@@H](Oc3ncc(OC)c4cc(N(C)C)ccc34)CN2C(=O)[C@H]1NC(=O)OC(C)(C)C` [Compound 3206, tert-butyl ((2R,6S,7R,9R,13aS,14aR,16aS,Z)-2-((6-(dimethylamino)-4-methoxyisoquinolin-1-yl)oxy)-7-ethyl-9-methyl-14a-(((1-methylcyclopropyl)sulfonyl)carbamoyl)-5,16-dioxo-1,2,3,5,6,7,8,9,10,11,13a,14,14a,15,16,16a-hexadecahydrocyclopropa[e]pyrrolo[1,2-a][1,4]diazacyclopentadecin-6-yl)carbamate]: the EC50 in experiment [1] and in experiment [2] was 1.01 to 5 nM in each case.

`CC[C@@H]1C[C@H](C)CC/C=C\[C@@H]2C[C@@]2(C(=O)NS(=O)(=O)C2(C)CC2)NC(=O)[C@@H]2C[C@@H](Oc3ncc(OC)c4cc(N(C)C)ccc34)CN2C(=O)[C@H]1NC(=O)OC(C)(C)C(F)(F)F` [Compound 3208, 1,1,1-trifluoro-2-methylpropan-2-yl((2R,6S,7R,9R,13aS,14aR,16aS,Z)-2-((6-(dimethylamino)-4-methoxyisoquinolin-1-yl)oxy)-7-ethyl-9-methyl-14a-(((1-methylcyclopropyl)sulfonyl)carbamoyl)-5,16-dioxo-1,2,3,5,6,7,8,9,10,11,13a,14,14a,15,16,16a-hexadecahydrocyclopropa[e]pyrrolo[1,2-a][1,4]diazacyclopentadecin-6-yl)carbamate]: the EC50 in experiment [1] lay within 1.01 to 5 nM; in experiment [2], 0.51 to 1 nM.

For the compound `COc1cc2cc(F)ccc2c(O[C@@H]2C[C@H]3C(=O)N[C@]4(C(=O)NS(=O)(=O)C5(CF)CC5)C[C@H]4/C=C\CC[C@@H](C)C[C@@H](C)[C@H](NC(=O)OC(C)(C)C)C(=O)N3C2)n1` [Compound 3210, tert-butyl ((2R,6S,7R,9R,13aS,14aR,16aS,Z)-2-((6-fluoro-3-methoxyisoquinolin-1-yl)oxy)-14a-(((1-(fluoromethyl)cyclopropyl)sulfonyl)carbamoyl)-7,9-dimethyl-5,16-dioxo-1,2,3,5,6,7,8,9,10,11,13a,14,14a,15,16,16a-hexadecahydrocyclopropa[e]pyrrolo[1,2-a][1,4]diazacyclopentadecin-6-yl)carbamate], the concentration giving a half-maximal response (EC50) in experiment [1] fell in the range of 1.01 to 5 nM; in experiment [2] it was 0.1 to 0.5 nM.

As to `CC[C@@H]1C[C@H](C)CC/C=C\[C@@H]2C[C@@]2(C(=O)NS(=O)(=O)C2(C)CC2)NC(=O)[C@@H]2C[C@@H](Oc3nc(OC)cc4cc(F)ccc34)CN2C(=O)[C@H]1NC(=O)OC(C)(C)C` [Compound 3212, tert-butyl ((2R,6S,7R,9R,13aS,14aR,16aS,Z)-7-ethyl-2-((6-fluoro-3-methoxyisoquinolin-1-yl)oxy)-9-methyl-14a-(((1-methylcyclopropyl)sulfonyl)carbamoyl)-5,16-dioxo-1,2,3,5,6,7,8,9,10,11,13a,14,14a,15,16,16a-hexadecahydrocyclopropa[e]pyrrolo[1,2-a][1,4]diazacyclopentadecin-6-yl)carbamate], the figures for the EC50 in experiment [1] and in experiment [2] were 0.51 to 1 nM and 0.1 to 0.5 nM, respectively.

Take `COc1cc2cc(F)ccc2c(O[C@@H]2C[C@H]3C(=O)N[C@]4(C(=O)NS(=O)(=O)C5(CF)CC5)C[C@H]4/C=C\CC[C@@H](C)C[C@@H](C)[C@H](NC(=O)OC(C)(C)C(F)(F)F)C(=O)N3C2)n1` [Compound 3214, 1,1,1-trifluoro-2-methylpropan-2-yl((2R,6S,7R,9R,13aS,14aR,16aS,Z)-2-((6-fluoro-3-methoxyisoquinolin-1-yl)oxy)-14a-(((1-(fluoromethyl)cyclopropyl)sulfonyl)carbamoyl)-7,9-dimethyl-5,16-dioxo-1,2,3,5,6,7,8,9,10,11,13a,14,14a,15,16,16a-hexadecahydrocyclopropa[e]pyrrolo[1,2-a][1,4]diazacyclopentadecin-6-yl)carbamate]: the concentration for a half-maximal effect (EC50) was in the range of 1.01 to 5 nM in experiment [1] and 0.1 to 0.5 nM in experiment [2].

Turning to `CC[C@@H]1C[C@H](C)CC/C=C\[C@@H]2C[C@@]2(C(=O)NS(=O)(=O)C2(C)CC2)NC(=O)[C@@H]2C[C@@H](Oc3nc(OC)cc4cc(F)ccc34)CN2C(=O)[C@H]1NC(=O)OC(C)(C)C(C)(F)F` [Compound 3216, 3,3-difluoro-2-methylbutan-2-yl((2R,6S,7R,9R,13aS,14aR,16aS,Z)-7-ethyl-2-((6-fluoro-3-methoxyisoquinolin-1-yl)oxy)-9-methyl-14a-(((1-methylcyclopropyl)sulfonyl)carbamoyl)-5,16-dioxo-1,2,3,5,6,7,8,9,10,11,13a,14,14a,15,16,16a-hexadecahydrocyclopropa[e]pyrrolo[1,2-a][1,4]diazacyclopentadecin-6-yl)carbamate], the 50% effective concentration (EC50) in experiment [1] was in the range of 1.01 to 5 nM; in experiment [2], 0.1 to 0.5 nM.

As to `COc1cc2cc(F)ccc2c(O[C@@H]2C[C@H]3C(=O)N[C@]4(C(=O)NS(=O)(=O)C5(CF)CC5)C[C@H]4/C=C\CC[C@@H](C)C[C@@H](C)[C@H](NC(=O)OC(C)(C)C(C)(F)F)C(=O)N3C2)n1` [Compound 3218, 3,3-difluoro-2-methylbutan-2-yl((2R,6S,7R,9R,13aS,14aR,16aS,Z)-2-((6-fluoro-3-methoxyisoquinolin-1-yl)oxy)-14a-(((1-(fluoromethyl)cyclopropyl)sulfonyl)carbamoyl)-7,9-dimethyl-5,16-dioxo-1,2,3,5,6,7,8,9,10,11,13a,14,14a,15,16,16a-hexadecahydrocyclopropa[e]pyrrolo[1,2-a][1,4]diazacyclopentadecin-6-yl)carbamate], the results for the EC50 in experiment [1] and in experiment [2] were 1.01 to 5 nM and 0.1 to 0.5 nM, respectively.

In the case of `CC[C@@H]1C[C@H](C)CC/C=C\[C@@H]2C[C@@]2(C(=O)NS(=O)(=O)C2(C)CC2)NC(=O)[C@@H]2C[C@@H](Oc3nc(OC)cc4cc(F)ccc34)CN2C(=O)[C@H]1NC(=O)OC(C)(C)C(F)(F)F` [Compound 3220, 1,1,1-trifluoro-2-methylpropan-2-yl((2R,6S,7R,9R,13aS,14aR,16aS,Z)-7-ethyl-2-((6-fluoro-3-methoxyisoquinolin-1-yl)oxy)-9-methyl-14a-(((1-methylcyclopropyl)sulfonyl)carbamoyl)-5,16-dioxo-1,2,3,5,6,7,8,9,10,11,13a,14,14a,15,16,16a-hexadecahydrocyclopropa[e]pyrrolo[1,2-a][1,4]diazacyclopentadecin-6-yl)carbamate], the figures for the EC50 in experiment [1] and in experiment [2] were 1.01 to 5 nM and 0.1 to 0.5 nM, respectively.

As for `CC[C@@H]1C[C@H](C)CC/C=C\[C@@H]2C[C@@]2(C(=O)NS(=O)(=O)C2(C)CC2)NC(=O)[C@@H]2C[C@@H](Oc3nccc4cc(OC)c(Cl)cc34)CN2C(=O)[C@H]1NC(=O)OC(C)(C)C(F)(F)F` [Compound 3222, 1,1,1-trifluoro-2-methylpropan-2-yl((2R,6S,7R,9R,13aS,14aR,16aS,Z)-2-((7-chloro-6-methoxyisoquinolin-1-yl)oxy)-7-ethyl-9-methyl-14a-(((1-methylcyclopropyl)sulfonyl)carbamoyl)-5,16-dioxo-1,2,3,5,6,7,8,9,10,11,13a,14,14a,15,16,16a-hexadecahydrocyclopropa[e]pyrrolo[1,2-a][1,4]diazacyclopentadecin-6-yl)carbamate], the EC50 in experiment [1] and in experiment [2] was 1.01 to 5 nM throughout.

With `CC[C@@H]1C[C@H](C)CC/C=C\[C@@H]2C[C@@]2(C(=O)NS(=O)(=O)C2(C)CC2)NC(=O)[C@@H]2C[C@@H](Oc3nccc4cc(OC)c(Cl)cc34)CN2C(=O)[C@H]1NC(=O)OC(C)(C)C(C)(F)F` [Compound 3224, 3,3-difluoro-2-methylbutan-2-yl((2R,6S,7R,9R,13aS,14aR,16aS,Z)-2-((7-chloro-6-methoxyisoquinolin-1-yl)oxy)-7-ethyl-9-methyl-14a-(((1-methylcyclopropyl)sulfonyl)carbamoyl)-5,16-dioxo-1,2,3,5,6,7,8,9,10,11,13a,14,14a,15,16,16a-hexadecahydrocyclopropa[e]pyrrolo[1,2-a][1,4]diazacyclopentadecin-6-yl)carbamate], the EC50 in experiment [1] and in experiment [2] was 1.01 to 5 nM in each case.

With `CC[C@@H]1C[C@H](C)CC/C=C\[C@@H]2C[C@@]2(C(=O)NS(=O)(=O)C2(C)CC2)NC(=O)[C@@H]2C[C@@H](Oc3nccc4cc(OC)c(Cl)cc34)CN2C(=O)[C@H]1NC(=O)OC(C)(C)C(F)F` [Compound 3226, 1,1-difluoro-2-methylpropan-2-yl((2R,6S,7R,9R,13aS,14aR,16aS,Z)-2-((7-chloro-6-methoxyisoquinolin-1-yl)oxy)-7-ethyl-9-methyl-14a-(((1-methylcyclopropyl)sulfonyl)carbamoyl)-5,16-dioxo-1,2,3,5,6,7,8,9,10,11,13a,14,14a,15,16,16a-hexadecahydrocyclopropa[e]pyrrolo[1,2-a][1,4]diazacyclopentadecin-6-yl)carbamate], the EC50 in experiment [1] was in the range of 1.01 to 5 nM; in experiment [2], 0.51 to 1 nM.

Take `CC[C@@H]1C[C@H](C)CC/C=C\[C@@H]2C[C@@]2(C(=O)NS(=O)(=O)C2CC2)NC(=O)[C@@H]2C[C@H](Oc3ncc(OC)c4ccc(F)cc34)CN2C(=O)[C@@H]1NC(=O)OC(C)(C)C` [Compound 4001, tert-butyl tert-butyl (2R,6S,7R,9R,13aS,14aR,16aS,Z)-14a-(cyclopropylsulfonylcarbamoyl)-7-ethyl-2-(7-fluoro-4-methoxyisoquinolin-1-yloxy)-9-methyl-5,16-dioxo-1,2,3,5,6,7,8,9,10,11,13a,14,14a,15,16,16a-hexadecahydrocyclopropa[e]pyrrolo[1,2-a][1,4]diazacyclopentadecin-6-ylcarbamate]: the EC50 in experiment [1] and in experiment [2] was below 5.46 nM throughout.
